40 molecules from ChEMBL document CHEMBL1128075, “Chemical modification and structure-activity relationships of pyripyropenes; potent, bioavailable inhibitor of acyl-CoA: Cholesterol O-acyltransferase (ACAT)” (Bioorg Med Chem Lett, 1995) can be followed below.

In the first assay the test system is Cricetinae gen. sp. Kind of assay: Effective dose for inhibition of [3H]- cholesterol absorption in a hamster model. Format: functional, Cricetulus griseus.
In turn, `CC(=O)O[C@H]1CC[C@@]2(C)C(C[C@H](OC(C)=O)[C@@]3(C)Oc4cc(-c5cccnc5)oc(=O)c4[C@H](O)C23)C1(C)COS(C)(=O)=O` (single isomer, unassigned) showed an ED50 of 10 mg/kg.

For a further assay, the target named is T1, Sterol O-acyltransferase 2 (Rattus norvegicus, UniProt Q7TQM4).
T1 sequence (Q7TQM4 whole entry): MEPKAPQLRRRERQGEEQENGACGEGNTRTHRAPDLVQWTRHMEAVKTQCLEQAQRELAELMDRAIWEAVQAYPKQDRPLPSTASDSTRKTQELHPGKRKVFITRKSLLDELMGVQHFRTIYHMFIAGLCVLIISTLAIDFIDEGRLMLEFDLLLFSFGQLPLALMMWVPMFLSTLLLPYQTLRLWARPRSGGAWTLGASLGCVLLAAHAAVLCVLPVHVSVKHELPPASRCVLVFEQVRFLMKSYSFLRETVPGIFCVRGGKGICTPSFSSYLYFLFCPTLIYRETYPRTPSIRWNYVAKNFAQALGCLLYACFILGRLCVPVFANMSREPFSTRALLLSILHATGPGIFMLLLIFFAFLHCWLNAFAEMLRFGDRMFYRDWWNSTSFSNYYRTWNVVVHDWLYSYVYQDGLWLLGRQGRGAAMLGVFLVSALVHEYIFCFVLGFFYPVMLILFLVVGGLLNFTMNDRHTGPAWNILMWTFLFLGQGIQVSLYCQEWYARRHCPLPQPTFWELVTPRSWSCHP
Kind of assay: Inhibitory activity against acyl-CoA:cholesterol O-acyltransferase (ACAT).
For the molecule `CCCC(N)C(=O)O[C@H]1c2c(cc(-c3cccnc3)oc2=O)O[C@@]2(C)C1[C@@]1(C)CC[C@H](OC(C)=O)[C@@](C)(COC(C)=O)C1C[C@@H]2OC(C)=O` (stereo partly specified), the IC50 is 16000 nM. `CCCC(N)C(=O)O[C@H]1CC[C@@]2(C)C(C[C@H](OC(C)=O)[C@@]3(C)Oc4cc(-c5cccnc5)oc(=O)c4[C@H](O)C23)[C@]1(C)COC(C)=O` (stereo partly specified) yielded an IC50 of 620 nM. Turning to `CCCC(N)C(=O)O[C@H]1CC2[C@](C)(CC[C@@H]3OC(=O)OC[C@@]23C)C2[C@@H](O)c3c(cc(-c4cccnc4)oc3=O)O[C@@]21C` (stereo partly specified), the IC50 is 2500 nM. Same read-out and setting: the value for `CCCCO[C@H]1c2c(cc(-c3cccnc3)oc2=O)O[C@@]2(C)C1[C@@]1(C)CC[C@H](OC(C)=O)[C@@](C)(COC(C)=O)C1C[C@@H]2OC(C)=O` (stereo partly specified) was 2400 nM. `CCCC(N)C(=O)O[C@H]1CC2[C@](C)(CC[C@H](O)[C@@]2(C)CO)C2[C@@H](O)c3c(cc(-c4cccnc4)oc3=O)O[C@@]21C` (stereo partly specified) showed a concentration for half-maximal inhibition (IC50) of 79000 nM. `CC(=O)O[C@H]1CC[C@@]2(C)C(C[C@H](OC(C)=O)[C@@]3(C)Oc4cc(-c5cccnc5)oc(=O)c4[C@H](O)C23)[C@]1(C)COCC(C)C` (stereo partly specified) came in with a 50% inhibitory concentration (IC50) of 5900 nM. `CCCC(N)C(=O)O[C@H]1CC2[C@](C)(CC[C@@H]3OC4(CCCCC4)OC[C@@]23C)C2[C@@H](O)c3c(cc(-c4cccnc4)oc3=O)O[C@@]21C` (stereo partly specified) had an IC50 of 39 nM. `CCCO[C@H]1c2c(cc(-c3cccnc3)oc2=O)O[C@@]2(C)C1[C@@]1(C)CC[C@H](OC(C)=O)[C@@](C)(COC(C)=O)C1C[C@@H]2OC(C)=O` (stereo partly specified) showed an IC50 of 23000 nM. `CCCCOC[C@@]1(C)C2C[C@H](OC(C)=O)[C@@]3(C)Oc4cc(-c5cccnc5)oc(=O)c4[C@H](O)C3[C@@]2(C)CC[C@@H]1OC(C)=O` (stereo partly specified) showed an IC50 of 4200 nM. Same read-out and setting: with `CCCC(N)C(=O)O[C@H]1CC2[C@](C)(CC[C@@H]3OC(c4ccccc4)OC[C@@]23C)C2[C@@H](O)c3c(cc(-c4cccnc4)oc3=O)O[C@@]21C` (stereo partly specified) the figure was 6 nM; with `CC(=O)OC[C@@]1(C)C2C[C@H](OCC(C)C)[C@@]3(C)Oc4cc(-c5cccnc5)oc(=O)c4[C@H](O)C3[C@@]2(C)CC[C@@H]1OC(C)=O` (stereo partly specified), 130 nM; with `CC(=O)OC[C@@]1(C)C2C[C@H](OC(C)=O)[C@@]3(C)Oc4cc(-c5cccnc5)oc(=O)c4[C@H](O)C3[C@@]2(C)CC[C@@H]1OCC(C)C` (stereo partly specified), 130 nM. `CCCC(N)C(=O)OC[C@@]1(C)C2C[C@H](OC(C)=O)[C@@]3(C)Oc4cc(-c5cccnc5)oc(=O)c4[C@H](O)C3[C@@]2(C)CC[C@@H]1OC(C)=O` (stereo partly specified) had an IC50 of more than 8000 nM.

The molecule `CCCC(N)C(=O)O[C@H]1CC2[C@](C)(CC[C@@H]3OC(C)(c4ccccc4)OC[C@@]23C)C2[C@@H](O)c3c(cc(-c4cccnc4)oc3=O)O[C@@]21C` (stereo partly specified) returned a 50% inhibitory concentration (IC50) of 910 nM.

Turning to `CCCC(N)C(=O)O[C@H]1CC2[C@](C)(CC[C@@H]3OC(CC)OC[C@@]23C)C2[C@@H](O)c3c(cc(-c4cccnc4)oc3=O)O[C@@]21C` (stereo partly specified), the IC50 was found to be 33 nM.

As to `CC(=O)OC[C@@]1(C)C2C[C@H](OC(C)=O)[C@@]3(C)Oc4cc(-c5cccnc5)oc(=O)c4C=C3[C@@]2(C)CC[C@@H]1OC(C)=O` (stereo partly specified), the IC50 was 5800 nM. `CCCC(N)C(=O)O[C@H]1CC2[C@](C)(CC[C@@H]3OC(C)(C)OC[C@@]23C)C2[C@@H](O)c3c(cc(-c4cccnc4)oc3=O)O[C@@]21C` (stereo partly specified) returned an IC50 of 86 nM. As to `CC(=O)OC[C@@]1(C)C2C[C@H](OC(C)=O)[C@@]3(C)Oc4cc(-c5ccc[n+]([O-])c5)oc(=O)c4[C@H](O)C3[C@@]2(C)CC[C@@H]1OC(C)=O` (stereo partly specified), the half-inhibitory concentration (IC50) was 5800 nM. On to `CCCO[C@H]1CC[C@@]2(C)C(C[C@H](OC(C)=O)[C@@]3(C)Oc4cc(-c5cccnc5)oc(=O)c4[C@H](O)C23)[C@]1(C)COC(C)=O` (stereo partly specified), for which it took 140 nM to reach half-maximal inhibition (IC50). On the same count and under the same terms, with `CCCCO[C@H]1CC2[C@](C)(CC[C@H](OC(C)=O)[C@@]2(C)COC(C)=O)C2[C@@H](O)c3c(cc(-c4cccnc4)oc3=O)O[C@@]21C` (stereo partly specified) the figure was 38 nM. Still for that read-out and setting: with `CCCO[C@H]1CC2[C@](C)(CC[C@H](OC(C)=O)[C@@]2(C)COC(C)=O)C2[C@@H](O)c3c(cc(-c4cccnc4)oc3=O)O[C@@]21C` (stereo partly specified) the figure was 67 nM; with `CCCC(N)C(=O)O[C@H]1CC2[C@](C)(CC[C@@H]3OC(C)OC[C@@]23C)C2[C@@H](O)c3c(cc(-c4cccnc4)oc3=O)O[C@@]21C` (stereo partly specified), 25 nM; with `CCCOC[C@@]1(C)C2C[C@H](OC(C)=O)[C@@]3(C)Oc4cc(-c5cccnc5)oc(=O)c4[C@H](O)C3[C@@]2(C)CC[C@@H]1OC(C)=O` (stereo partly specified), 270 nM. For `CCCCO[C@H]1CC[C@@]2(C)C(C[C@H](OC(C)=O)[C@@]3(C)Oc4cc(-c5cccnc5)oc(=O)c4[C@H](O)C23)[C@]1(C)COC(C)=O` (stereo partly specified), half-maximal inhibition (IC50) required 200 nM. The molecule `CCCC(N)C(=O)O[C@H]1CC2[C@](C)(CC[C@H](OC(C)=O)[C@@]2(C)COC(C)=O)C2[C@@H](O)c3c(cc(-c4cccnc4)oc3=O)O[C@@]21C` (stereo partly specified) had an IC50 of 13 nM.

Molecule `CC(=O)OCC1(C)C2C[C@H](OCc3ccccc3)[C@@]3(C)Oc4cc(-c5cccnc5)oc(=O)c4[C@H](O)C3[C@@]2(C)CC[C@@H]1OC(C)=O` (single isomer, unassigned) yielded an IC50 of 7400 nM. The molecule `CC(=O)O[C@H]1CC2C3(C)COC(C)(C)O[C@H]3CC[C@]2(C)C2[C@@H](O)c3c(cc(-c4cccnc4)oc3=O)O[C@@]21C` (single isomer, unassigned) gave a half-maximal inhibitory concentration (IC50) of 1200 nM. `CC(=O)O[C@H]1CC[C@@]2(C)C(C[C@H](OC(C)=O)[C@@]3(C)Oc4cc(-c5cccnc5)oc(=O)c4[C@H](O)C23)C1(C)COS(C)(=O)=O` (single isomer, unassigned) registered a concentration for half-maximal inhibition (IC50) of 19 nM. Still for that read-out and setting: the value for `CC(=O)O[C@H]1CC[C@@]2(C)C(C[C@H](OC(C)=O)[C@@]3(C)Oc4cc(-c5cccnc5)oc(=O)c4[C@H](O)C23)C1(C)COS(=O)(=O)c1ccccc1` (single isomer, unassigned) was 110000 nM; that for `CO[C@H]1c2c(cc(-c3cccnc3)oc2=O)O[C@@]2(C)C1[C@@]1(C)CC[C@H](OC(C)=O)C(C)(COC(C)=O)C1C[C@@H]2OC(C)=O` (single isomer, unassigned) was 38000 nM; that for `CC(=O)O[C@H]1CC2C3(C)COC(c4ccccc4)O[C@H]3CC[C@]2(C)C2[C@@H](O)c3c(cc(-c4cccnc4)oc3=O)O[C@@]21C` (single isomer, unassigned) was 120 nM. Regarding `CC12COC(c3ccccc3)O[C@H]1CC[C@@]1(C)C2C[C@H](O)[C@@]2(C)Oc3cc(-c4cccnc4)oc(=O)c3[C@H](O)C12` (single isomer, unassigned), the IC50 is more than 180000 nM. As to `CC1(CO)C2C[C@H](O)[C@@]3(C)Oc4cc(-c5cccnc5)oc(=O)c4[C@H](O)C3[C@@]2(C)CC[C@@H]1O` (single isomer, unassigned), the IC50 was more than 220000 nM. In turn, `CC(=O)OCC1(C)C2C[C@H](OC(C)=O)[C@@]3(C)Oc4cc(-c5ccc[n+](C)c5)oc(=O)c4[C@H](O)C3[C@@]2(C)CC[C@@H]1OC(C)=O` (single isomer, unassigned) returned an IC50 of 2100 nM. The same measure, in the same setting: the value for `CC1(C)OCC2(C)C3C[C@H](O)[C@@]4(C)Oc5cc(-c6cccnc6)oc(=O)c5[C@H](O)C4[C@@]3(C)CC[C@@H]2O1` (single isomer, unassigned) was more than 200000 nM; that for `CC(=O)OCC1(C)C2C[C@H](OC(C)=O)[C@@]3(C)Oc4cc(-c5cccnc5)oc(=O)c4C(=O)C3[C@@]2(C)CC[C@@H]1OC(C)=O` (single isomer, unassigned) was 2100 nM; that for `CC(=O)O[C@H]1CC2C(C)(CO)[C@@H](O)CC[C@]2(C)C2[C@@H](O)c3c(cc(-c4cccnc4)oc3=O)O[C@@]21C` (single isomer, unassigned) was 100000 nM. On to `CC(=O)OCC1(C)C2C[C@H](OS(C)(=O)=O)[C@@]3(C)Oc4cc(-c5cccnc5)oc(=O)c4[C@H](O)C3[C@@]2(C)CC[C@@H]1OC(C)=O` (single isomer, unassigned), for which the IC50 worked out at 1800 nM. On the same count and under the same terms, with `CC(=O)OCC1(C)C2C[C@H](OC(C)=O)[C@@]3(C)Oc4cc(-c5cccnc5)oc(=O)c4[C@H](OC(C)=O)C3[C@@]2(C)CC[C@@H]1OC(C)=O` (single isomer, unassigned) the figure was 5100 nM.

The molecule `CC(=O)OCC1(C)C2C[C@H](OS(=O)(=O)c3ccccc3)[C@@]3(C)Oc4cc(-c5cccnc5)oc(=O)c4[C@H](O)C3[C@@]2(C)CC[C@@H]1OC(C)=O` (single isomer, unassigned) returned an IC50 of 3100 nM.
